PubChem BioAssay (NCI)
Values joined by “and” are separate entries in the source; they are usually repeats but may differ in a detail not shown here. Equal entries are not always repeated.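 Five concentrations, 48 hours, 96-well plates. GI50 is the concentration that inhibits growth by half. TGI marks complete inhibition of growth.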 Numbered stars: 1 amine (or outer) side, 2 acyl side, 3 side chain; on linkers, the order of the positions; unused ones are H or OH. Bridge positions count the residues as written; N and C are the ends. Square brackets hold non-standard residues; d marks the D form. Peptide text beside a SMILES is read from it. I, II: the chains in the order shown. Actinocin(1to9) = Cc1c2oc3c(C)ccc(C(=O)[*:2])c3nc-2c(C(=O)[*:1])c(N)c1=O; NMeV = CN[CH](C(=O)O)C(C)C; Sar = CNCC(=O)O

Assays:
Experiment in all cases: NCI-60 cell line screen, 48 h
CCRF-CEM leukemia = system: CCRF-CEM leukemia
DU-145 prostate = system: DU-145 prostate
K-562 leukemia = system: K-562 leukemia
MALME-3M melanoma = system: MALME-3M melanoma
OVCAR-4 ovarian = system: OVCAR-4 ovarian
PC-3 prostate = system: PC-3 prostate
SK-MEL-28 melanoma = system: SK-MEL-28 melanoma
SK-MEL-5 melanoma = system: SK-MEL-5 melanoma
SW-620 colon = system: SW-620 colon
RXF 393 renal = system: RXF 393 renal

Compound	TGI (CCRF-CEM leukemia)	TGI (DU-145 prostate)	TGI (K-562 leukemia)	TGI (MALME-3M melanoma)	TGI (OVCAR-4 ovarian)	TGI (PC-3 prostate)	TGI (SK-MEL-28 melanoma)	TGI (SK-MEL-5 melanoma)	TGI (SW-620 colon)	TGI (RXF 393 renal)	GI50 (CCRF-CEM leukemia)	GI50 (DU-145 prostate)	GI50 (K-562 leukemia)	GI50 (MALME-3M melanoma)	GI50 (OVCAR-4 ovarian)	GI50 (PC-3 prostate)	GI50 (RXF 393 renal)	GI50 (SK-MEL-5 melanoma)	GI50 (SW-620 colon)
COC(=O)/C=C/N1CC1	> 10 µM	> 10 µM	> 10 µM	> 10 µM	> 10 µM	> 10 µM	> 10 µM	> 10 µM											
OCC1(CNc2cc(Cl)ncn2)CCC1	> 100 µM	> 100 µM	> 100 µM	> 100 µM	> 100 µM	> 100 µM	> 100 µM	> 100 µM	> 100 µM										
NC(=O)N/N=C/c1ccccc1O	> 100 µM	> 100 µM	> 100 µM		> 100 µM	> 100 µM	> 100 µM	> 100 µM	> 100 µM	> 100 µM									
CC(C)[Si](OC1=CCC[C@H]2NC(=O)[C@@H](Cc3ccc([N+](=O)[O-])cc3)[C@@]12C)(C(C)C)C(C)C	8.19 µM	21.3 µM	13.7 µM	43.4 µM	17.1 µM	12 µM		5.58 µM		4.72 µM									
C[C@]12CC[C@H]3[C@@H](CCC4=CC(=O)CC[C@@]43C)[C@@H]1CC[C@@H]2OC(=O)c1cccc2c(=O)c3ccccc3[nH]c12	> 100 µM		80 µM	> 100 µM	> 100 µM	> 100 µM	> 100 µM	> 100 µM	> 100 µM	> 100 µM									
CC(C)(C)c1cc2c(O)c(c1)COCc1cc(C(C)(C)C)cc(c1O)COCc1cc(C(C)(C)C)cc(c1O)COC2	> 100 µM	> 100 µM	> 100 µM		> 100 µM	> 100 µM	> 100 µM	> 100 µM	> 100 µM	> 100 µM									
NCCSc1nc(N)c2ncn(C3OC(CO)C(O)C3O)c2n1 (stereo not given)	> 100 µM		> 100 µM	> 100 µM	> 100 µM		> 100 µM	> 100 µM	> 100 µM										
CCCC(=O)Oc1cc(OC(=O)CCC)c2c(C)cc(=O)oc2c1	> 100 µM	> 100 µM	> 100 µM	> 100 µM	> 100 µM	> 100 µM	> 100 µM	> 100 µM	> 100 µM										
Cc1cc2nc3c(C#N)c4c(c(Nc5ccc(Cl)cc5)n3c2cc1C)CCC4		75.1 µM		55 µM	> 100 µM		47.2 µM	32.9 µM	34 µM	33.8 µM									
COc1ccc(/C=C/C(=O)/C=C(/C=C/c2ccc(OC)c(OC)c2OC)OB(F)F)c(OC)c1OC	2.08 µM	> 100 µM	> 100 µM	62.4 µM	> 100 µM	> 100 µM		3.91 µM	4.34 µM	2.92 µM	0.366 µM	3.13 µM	1.28 µM	3.02 µM	5.09 µM	2.82 µM	1.35 µM	1.77 µM	0.58 µM
O=C(NC(Cc1ccccc1)P(=O)(O)c1ccccc1)OCc1ccccc1 (stereo not given)	> 100 µM	> 100 µM	> 100 µM	> 100 µM	> 100 µM	> 100 µM	> 100 µM	> 100 µM	> 100 µM										
O=c1[nH]c(Br)nc2c(N3CCCCC3)c[nH]c12	> 100 µM		> 100 µM	> 100 µM	> 100 µM		> 100 µM	> 100 µM	> 100 µM	> 100 µM									
CCC(C)C1NC(=O)C(NC(=O)c2c3nc4c(C(=O)NC5C(=O)NC(C(C)C)C(=O)N6CCCC6C(=O)N(C)CC(=O)N(C)C(C(C)C)C(=O)OC5C)ccc(C)c4oc-3c(C)c(=O)c2N)C(C)OC(=O)C(C(C)C)N(C)C(=O)CN(C)C(=O)C2CCCN2C1=O (stereo not given) (I: TIP[Sar][NMeV] / II: TVP[Sar][NMeV]; ester I:1-I:C, II:1-II:C; linker I:N-II:N via Actinocin(1to9); configuration not given here)		0.71 µM	0.105 µM	0.028 µM	0.739 µM	0.0947 µM and 0.0301 µM	0.0409 µM	0.111 µM		0.0102 µM									
C#CC1(O)CC(c2ccccc2)N(C)C(c2ccccc2)C1 (stereo not given)	> 100 µM		> 100 µM	> 100 µM	> 100 µM		> 100 µM	> 100 µM	> 100 µM	> 100 µM									
CC1CC/C(=C\c2ccc(F)cc2)C2=C1C(c1ccc(F)cc1)n1c(s/c(=C\c3ccc(Cl)cc3)c1=O)=N2 (stereo not given)	> 100 µM	> 100 µM	> 100 µM		> 100 µM	> 100 µM	> 100 µM	> 100 µM	> 100 µM	> 100 µM									
Cc1ccc(C)c(C(=N)c2ccccc2Cc2ccccc2)c1		48.1 µM	58.7 µM	28 µM	85.8 µM	> 100 µM	80.1 µM	30.5 µM	> 100 µM	34.9 µM									
O=c1[nH]c(=S)c2[nH]c(=O)n(-c3ccccc3)c2[nH]1		> 100 µM	> 100 µM	> 100 µM	> 100 µM	> 100 µM	> 100 µM	> 100 µM	> 100 µM	> 100 µM									
CCOC(=O)c1c(CN2CCOCC2)n(Cc2ccccc2)c2c1cc(O)c1nc(C)c(C)nc12	> 100 µM	> 100 µM	> 100 µM	> 100 µM	> 100 µM	92.4 µM	> 100 µM	57.4 µM	> 100 µM										
COc1ccccc1NC1=NCC(C)S1 (stereo not given)	> 100 µM	> 100 µM	> 100 µM	> 100 µM		> 100 µM	> 100 µM	> 100 µM	> 100 µM	> 100 µM									
COc1cc(OC)cc(Oc2nc3c(N)cc(C(F)(F)F)cc3nc2-c2ccccc2)c1	> 100 µM		31.4 µM		> 100 µM	> 100 µM	> 100 µM	> 100 µM	> 100 µM	> 100 µM									
Cc1ccc(C(=O)C(C)N)cc1C (stereo not given)	> 100 µM		> 100 µM	> 100 µM	> 100 µM		> 100 µM	> 100 µM	> 100 µM	> 100 µM									
O=Cc1ccc2[nH]c(=O)oc2c1	> 100 µM	> 100 µM	> 100 µM	> 100 µM		> 100 µM	> 100 µM		> 100 µM	> 100 µM									
